The test has as its target human plasma kallikrein (Homo sapiens (Human), UniProt P03952). The test can be described thus: Determination of the plasma kallikrein activity (fluorogenic peptide substrate). Format: biochemical. The settings on record: plasma kallikrein from Kordia, substrate H-Pro-Phe-Arg-AMC, 30 min at 22° C. On the procedure: To determine the plasma kallikrein inhibition of the substances according to the invention, a biochemical test system is used which utilizes the reaction of a peptidic plasma kallikrein substrate to determine the enzymatic activity of human plasma kallikrein. Here, plasma kallikrein cleaves from the peptic plasma kallikrein substrate the C-terminal aminomethylcoumarin (AMC), the fluorescence of which is measured. The determinations are carried out in microtitre plates.
1 μl of the diluted substance solutions is placed into each of the wells of white microtitre plates from Greiner (384 wells). 20 μl of assay buffer (50 mM Tris/HCl pH 7.4; 100 mM sodium chloride solution; 5 mM of calcium chloride solution; 0.1% of bovine serum albumin) and 20 μl of plasma kallikrein from Kordia (0.6 nM in assay buffer) are then added successively. After 15 min of incubation, the enzyme reaction is started by addition of 20 μl of the substrate H-Pro-Phe-Arg-AMC dissolved in assay buffer (10 μM in assay buffer) from Bachem, the mixture is incubated at room temperature (22° C.) for 30 min and fluorescence is then measured (excitation: 360 nm, emission: 460 nm). The measured emissions of the test batches with test substance are compared to those of control batches without test substance (only dimethyl sulphoxide instead of test substance in dimethyl sulphoxide), and IC50 values are calculated from the concentration/activity relationships.

human plasma kallikrein, sequence (P03952 391-638): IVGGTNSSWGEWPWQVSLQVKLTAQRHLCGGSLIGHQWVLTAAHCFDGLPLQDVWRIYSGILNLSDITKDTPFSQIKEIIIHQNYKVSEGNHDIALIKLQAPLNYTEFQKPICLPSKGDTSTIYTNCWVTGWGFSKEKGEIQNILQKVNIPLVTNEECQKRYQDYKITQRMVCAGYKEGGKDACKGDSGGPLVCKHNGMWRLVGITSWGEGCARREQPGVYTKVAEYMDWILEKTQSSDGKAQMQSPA
human plasma kallikrein, sequence (P03952 20-390 partner): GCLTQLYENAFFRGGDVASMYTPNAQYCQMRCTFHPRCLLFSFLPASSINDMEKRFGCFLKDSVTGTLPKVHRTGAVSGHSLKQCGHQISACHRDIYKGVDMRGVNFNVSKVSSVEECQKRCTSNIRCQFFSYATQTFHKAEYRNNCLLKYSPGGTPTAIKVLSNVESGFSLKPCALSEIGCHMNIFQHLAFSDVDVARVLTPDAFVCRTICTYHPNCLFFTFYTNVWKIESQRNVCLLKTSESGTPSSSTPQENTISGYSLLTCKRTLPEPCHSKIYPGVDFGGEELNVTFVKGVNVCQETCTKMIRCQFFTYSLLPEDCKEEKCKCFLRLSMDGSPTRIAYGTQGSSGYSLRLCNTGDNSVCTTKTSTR

`CCCNC(=O)c1cnn2ccc(NC(=O)C(CCOC)n3cc(OC)c(-c4cc(Cl)ccc4C#N)cc3=O)cc12` (racemic) [Example 7, 5-({2-[4-(5-Chloro-2-cyanophenyl)-5-methoxy-2-oxopyridin-1(2H)-yl]-4-methoxybutanoyl}amino)-N-propylpyrazolo[1,5-a]pyridine-3-carboxamide (racemate)]: the half-maximal inhibitory concentration (IC50) (in general, the concentration at which inhibition is half-maximal) came out at 6.4 nM.

On to `COCCC(C(=O)Nc1ccn2ncc(C(=O)N(C)C)c2c1)n1cc(OC)c(-c2cc(Cl)ccc2C#N)cc1=O` (racemic) [Example 6, 5-({2-[4-(5-Chloro-2-cyanophenyl)-5-methoxy-2-oxopyridin-1(2H)-yl]-4-methoxybutanoyl}amino)-N,N-dimethylpyrazolo[1,5-a]pyridine-3-carboxamide (racemate)], for which the IC50 was determined as 18 nM.

Regarding `COCCC(C(=O)Nc1ccn2ncc(C(=O)NCCOC(F)(F)F)c2c1)n1cc(OC)c(-c2cc(Cl)ccc2C#N)cc1=O` (racemic) [Example 10, 5-({2-[4-(5-Chloro-2-cyanophenyl)-5-methoxy-2-oxopyridin-1(2H)-yl]-4-methoxybutanoyl}amino)-N-[2-(trifluoromethoxy)ethyl]pyrazolo[1,5-a]pyridine-3-carboxamide (racemate)], the IC50 amounted to 9.5 nM.

Turning to `COCCC(C(=O)Nc1ccn2ncc(C(=O)NCCO)c2c1)n1cc(OC)c(-c2cc(Cl)ccc2C#N)cc1=O` (racemic) [Example 14, 5-({2-[4-(5-Chloro-2-cyanophenyl)-5-methoxy-2-oxopyridin-1(2H)-yl]-4-methoxybutanoyl}amino)-N-(2-hydroxyethyl)pyrazolo[1,5-a]pyridine-3-carboxamide (racemate)], the IC50 came to 3.8 nM.

On to `COCCC(C(=O)Nc1ccn2ncc(C(=O)NCCCO)c2c1)n1cc(OC)c(-c2cc(Cl)ccc2C#N)cc1=O` (racemic) [Example 13, 5-({2-[4-(5-Chloro-2-cyanophenyl)-5-methoxy-2-oxopyridin-1(2H)-yl]-4-methoxybutanoyl}amino)-N-(3-hydroxypropyl)pyrazolo[1,5-a]pyridine-3-carboxamide (racemate)], for which it took 5.2 nM to reach half-maximal inhibition (IC50).

In turn, `COCCNC(=O)c1cnn2ccc(NC(=O)C(CCOC)n3cc(OC)c(-c4cc(Cl)ccc4C#N)cc3=O)cc12` (racemic) [Example 8, 5-({2-[4-(5-Chloro-2-cyanophenyl)-5-methoxy-2-oxopyridin-1(2H)-yl]-4-methoxybutanoyl}amino)-N-(2-methoxyethyl)pyrazolo[1,5-a]pyridine-3-carboxamide (racemate)] yielded an IC50 of 3.8 nM.

The compound `COCCC(C(=O)Nc1ccn2ncc(C(=O)O)c2c1)n1cc(OC)c(-c2cc(Cl)ccc2C#N)cc1=O` (racemic) [Example 2, 5-({2-[4-(5-Chloro-2-cyanophenyl)-5-methoxy-2-oxopyridin-1(2H)-yl]-4-methoxybutanoyl}-amino)pyrazolo[1,5-a]pyridine-3-carboxylic acid (racemate)] yielded an IC50 of 2.5 nM.

`COCCCNC(=O)c1cnn2ccc(NC(=O)C(CCOC)n3cc(OC)c(-c4cc(Cl)ccc4C#N)cc3=O)cc12` (racemic) [Example 9, 5-({2-[4-(5-Chloro-2-cyanophenyl)-5-methoxy-2-oxopyridin-1(2H)-yl]-4-methoxybutanoyl}amino)-N-(3-methoxypropyl)pyrazolo[1,5-a]pyridine-3-carboxamide (racemate)]: the IC50 was 3 nM.

`COCCC(C(=O)Nc1ccn2ncc(C(=O)NCC(F)(F)F)c2c1)n1cc(OC)c(-c2cc(Cl)ccc2C#N)cc1=O` (racemic) [Example 12, 5-({2-[4-(5-Chloro-2-cyanophenyl)-5-methoxy-2-oxopyridin-1(2H)-yl]-4-methoxybutanoyl}amino)-N-(2,2,2-trifluoroethyl)pyrazolo[1,5-a]pyridine-3-carboxamide (racemate)]: the IC50 turned out to be 5 nM.

`CCC(C(=O)Nc1ccn2ncc(C(=O)O)c2c1)n1cc(OC)c(-c2cc(Cl)ccc2C#N)cc1=O` (racemic) [Example 1, 5-({2-[4-(5-Chloro-2-cyanophenyl)-5-methoxy-2-oxopyridin-1(2H)-yl]butanoyl}amino)pyrazolo-[1,5-a]pyridine-3-carboxylic acid (racemate)] returned an IC50 of 5 nM.

In turn, `COCCC(C(=O)Nc1ccn2ncc(C(=O)NCCC(F)(F)F)c2c1)n1cc(OC)c(-c2cc(Cl)ccc2C#N)cc1=O` (racemic) [Example 11, 5-({2-[4-(5-Chloro-2-cyanophenyl)-5-methoxy-2-oxopyridin-1(2H)-yl]-4-methoxybutanoyl}amino)-N-(3,3,3-trifluoropropyl)pyrazolo[1,5-a]pyridine-3-carboxamide (racemate)] yielded an IC50 of 6.6 nM.
